# According to PubChem BioAssay AID248 (DTP/NCI, 2004):
# Several values for one entry are separate records, joined by “and”; a condition that tells them apart may be missing. Equal entries are not always repeated. Toxic doses and inconclusive results are not listed.
# Tested on: L1210 leukemia ip in BDF1 mice, survival T/C
# Experiment: NCI In Vivo Anticancer Drug Screen. Data for tumor model L1210 Leukemia (intraperitoneal) in B6D2F1 (BDF1) mice
# Details: higher = longer survival
# How it was run: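 Ratio derived from survival: compound-dosed mice over vehicle-dosed mice, all bearing a transplantable tumor.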
# [1] = endpoint: mean survival time, dose: 44.0 mg/kg/injection, schedule: Q01DX Z (ip), vehicle: saline
# [2] = endpoint: mean survival time, dose: 50.0 mg/kg/injection, schedule: Q01DX009 (ip), vehicle: Klucel (hydroxypropylcellulose) (HPC)
# [3] = endpoint: mean survival time, dose: 100.0 mg/kg/injection, schedule: Q01DX009 (ip), vehicle: Klucel (hydroxypropylcellulose) (HPC)
# [4] = endpoint: mean survival time, dose: 100.0 mg/kg/injection, schedule: Q01DX Z (ip), vehicle: saline
# [5] = endpoint: mean survival time, dose: 100.0 mg/kg/injection, schedule: Q04DX003 (ip), vehicle: Klucel (hydroxypropylcellulose) (HPC)
# [6] = endpoint: mean survival time, dose: 100.0 mg/kg/injection, schedule: Q04DX003 (ip), vehicle: saline
# [7] = endpoint: mean survival time, dose: 200.0 mg/kg/injection, schedule: Q01DX009 (ip), vehicle: Klucel (hydroxypropylcellulose) (HPC)
# [8] = endpoint: mean survival time, dose: 100.0 mg/kg/injection, schedule: Q04DX003 (ip), vehicle: saline with Tween-80
# [9] = endpoint: mean survival time, dose: 200.0 mg/kg/injection, schedule: Q04DX003 (ip), vehicle: saline with Tween-80
# [10] = endpoint: mean survival time, dose: 400.0 mg/kg/injection, schedule: Q04DX003 (ip), vehicle: saline with Tween-80
# [11] = endpoint: mean survival time, dose: 100.0 mg/kg/injection, schedule: Q01DX001 (ip), vehicle: saline
# [12] = endpoint: mean survival time, dose: 200.0 mg/kg/injection, schedule: Q01DX001 (ip), vehicle: saline
# [13] = endpoint: mean survival time, dose: 400.0 mg/kg/injection, schedule: Q01DX001 (ip), vehicle: saline
# [14] = endpoint: mean survival time, dose: 50.0 mg/kg/injection, schedule: Q01DX009 (ip), vehicle: saline
# [15] = endpoint: mean survival time, dose: 100.0 mg/kg/injection, schedule: Q01DX009 (ip), vehicle: saline
# [16] = endpoint: mean survival time, dose: 200.0 mg/kg/injection, schedule: Q01DX009 (ip), vehicle: saline
# [17] = endpoint: mean survival time, dose: 25.0 mg/kg/injection, schedule: Q01DX009 (ip), vehicle: saline with Tween-80
# [18] = endpoint: mean survival time, dose: 25.0 mg/kg/injection, schedule: Q04DX003 (ip), vehicle: saline with Tween-80
# [19] = endpoint: mean survival time, dose: 50.0 mg/kg/injection, schedule: Q01DX009 (ip), vehicle: saline with Tween-80
# [20] = endpoint: mean survival time, dose: 50.0 mg/kg/injection, schedule: Q04DX003 (ip), vehicle: saline with Tween-80
# [21] = endpoint: mean survival time, dose: 100.0 mg/kg/injection, schedule: Q01DX009 (ip), vehicle: saline with Tween-80
# [22] = endpoint: mean survival time, dose: 200.0 mg/kg/injection, schedule: Q01DX009 (ip), vehicle: saline with Tween-80
# [23] = endpoint: mean survival time, dose: 400.0 mg/kg/injection, schedule: Q01DX009 (ip), vehicle: saline with Tween-80
structure (smiles),measurement,setting,value
Nc1cc(N)nc(S(=O)O)n1,T/C,"endpoint: mean survival time, dose: 25.0 mg/kg/injection, schedule: Q04DX003 (ip), vehicle: saline",93 % of control
same,T/C,[1],119 % of control
same,T/C,[2],95 % of control
same,T/C,"endpoint: mean survival time, dose: 50.0 mg/kg/injection, schedule: Q04DX003 (ip), vehicle: saline",92 % of control
same,T/C,"endpoint: mean survival time, dose: 66.0 mg/kg/injection, schedule: Q01DX Z (ip), vehicle: saline",113 % of control
same,T/C,[3],95 % of control
same,T/C,[4],101 % of control
same,T/C,[5],107 % of control
same,T/C,[6],101 % of control
same,T/C,[7],89 % of control
CCOCc1cccc2ccccc12,T/C,[8],106 % of control
same,T/C,[9],98 % of control
same,T/C,[10],102 % of control
CC(C)(S)CNCCSC(=O)c1ccccc1,T/C,[8],102 % of control
same,T/C,[9],100 % of control
same,T/C,[10],92 % of control
COC(=O)CC1=C(C)CCc2cc3c(cc21)sc1ccccc13,T/C,[11],94 % of control
same,T/C,[12],94 % of control
same,T/C,[13],101 % of control
CCCC(C)c1ccc(N=NC2C(=O)c3ccccc3C2=O)cc1 (stereo not given),T/C,"endpoint: mean survival time, dose: 50.0 mg/kg/injection, schedule: Q01DX001 (ip), vehicle: saline",100 % of control
same,T/C,[11],94 % of control
same,T/C,[12],94 % of control
same,T/C,[13],103 % of control
CC1CN1P(=O)(Oc1ccccc1)N1CC1C (stereo not given),T/C,[1],107 % of control
same,T/C,"endpoint: mean survival time, dose: 67.0 mg/kg/injection, schedule: Q01DX Z (ip), vehicle: saline",107 % of control
same,T/C,[4],102 % of control
same,T/C,"endpoint: mean survival time, dose: 150.0 mg/kg/injection, schedule: Q01DX Z (ip), vehicle: saline",122 % of control
Cc1ccc2c(c1)P(=O)(O)c1cc(Cl)ccc1O2,T/C,[14],98 % of control
same,T/C,[15],100 % of control
same,T/C,[16],102 % of control
same,T/C,"endpoint: mean survival time, dose: 400.0 mg/kg/injection, schedule: Q01DX009 (ip), vehicle: saline",98 % of control
same,T/C,"endpoint: median survival time, dose: 64.8 mg/kg/injection, schedule: Q01DX009 (ip), vehicle: water",109 % of control
same,T/C,"endpoint: median survival time, dose: 108.0 mg/kg/injection, schedule: Q01DX009 (ip), vehicle: water",107 % of control
same,T/C,"endpoint: median survival time, dose: 130.0 mg/kg/injection, schedule: Q04DX003 (ip), vehicle: water",103 % of control
same,T/C,"endpoint: median survival time, dose: 180.0 mg/kg/injection, schedule: Q01DX009 (ip), vehicle: water",109 % of control
same,T/C,"endpoint: median survival time, dose: 216.0 mg/kg/injection, schedule: Q04DX003 (ip), vehicle: water",102 % of control
same,T/C,"endpoint: median survival time, dose: 300.0 mg/kg/injection, schedule: Q01DX009 (ip), vehicle: water",112 % of control
same,T/C,"endpoint: median survival time, dose: 360.0 mg/kg/injection, schedule: Q04DX003 (ip), vehicle: water",103 % of control
C[S+](C)(=O)/C=C(\[O-])Nc1ccccc1,T/C,[3],101 % of control
same,T/C,[5],101 % of control
same,T/C,[7],92 % of control
same,T/C,"endpoint: mean survival time, dose: 200.0 mg/kg/injection, schedule: Q04DX003 (ip), vehicle: Klucel (hydroxypropylcellulose) (HPC)",97 % of control
same,T/C,"endpoint: mean survival time, dose: 400.0 mg/kg/injection, schedule: Q01DX009 (ip), vehicle: Klucel (hydroxypropylcellulose) (HPC)",97 % of control
same,T/C,"endpoint: mean survival time, dose: 400.0 mg/kg/injection, schedule: Q04DX003 (ip), vehicle: Klucel (hydroxypropylcellulose) (HPC)",103 % of control
CC[n+]1cccc(NC(=O)c2ccc(NC(=O)c3ccc(C(=O)Nc4ccc(C(=O)Nc5ccc[n+](CC)c5)cc4)cc3)cc2)c1,T/C,"endpoint: mean survival time, dose: 0.25 mg/kg/injection, schedule: Q01DX009 (ip), vehicle: saline",110 % of control
same,T/C,"endpoint: mean survival time, dose: 4.0 mg/kg/injection, schedule: Q01DX001 (ip), vehicle: saline",115 % of control and 117 % of control
same,T/C,"endpoint: mean survival time, dose: 4.0 mg/kg/injection, schedule: Q01DX009 (ip), vehicle: saline",157 % of control and 160 % of control
same,T/C,"endpoint: mean survival time, dose: 4.4 mg/kg/injection, schedule: Q01DX Z (ip), vehicle: carboxymethylcellulose (CMC)",120 % of control
same,T/C,"endpoint: mean survival time, dose: 6.7 mg/kg/injection, schedule: Q01DX Z (ip), vehicle: carboxymethylcellulose (CMC)",92 % of control
same,T/C,"endpoint: mean survival time, dose: 8.0 mg/kg/injection, schedule: Q01DX009 (ip), vehicle: saline",228 % of control
same,T/C,"endpoint: mean survival time, dose: 16.0 mg/kg/injection, schedule: Q01DX009 (ip), vehicle: saline",121 % of control and 124 % of control
same,T/C,"endpoint: mean survival time, dose: 32.0 mg/kg/injection, schedule: Q01DX001 (ip), vehicle: saline",189 % of control
same,T/C,"endpoint: mean survival time, dose: 64.0 mg/kg/injection, schedule: Q01DX001 (ip), vehicle: saline",229 % of control
CCCCCCCCCCCCNCc1ccc(O)cc1,T/C,"endpoint: mean survival time, dose: 25.0 mg/kg/injection, schedule: Q01DX001 (ip), vehicle: other",95 % of control
same,T/C,[17],96 % of control
same,T/C,[18],98 % of control
same,T/C,"endpoint: mean survival time, dose: 50.0 mg/kg/injection, schedule: Q01DX001 (ip), vehicle: other",93 % of control
same,T/C,[19],93 % of control
same,T/C,[20],101 % of control
same,T/C,"endpoint: mean survival time, dose: 100.0 mg/kg/injection, schedule: Q01DX001 (ip), vehicle: other",93 % of control and 90 % of control
same,T/C,[21],88 % of control
same,T/C,[8],102 % of control
CC(=O)OC1CCC2(C)C3=C(CCC2C1(C)C)C1(C)CCC(C(C)CCC=C(C)C)C1(C)CC3 (stereo not given),T/C,[2],102 % of control
same,T/C,[3],94 % of control
C=CCC(=O)O,T/C,"endpoint: mean survival time, dose: 83.0 mg/kg/injection, schedule: Q01DX Z (ip), vehicle: saline",96 % of control
same,T/C,"endpoint: mean survival time, dose: 125.0 mg/kg/injection, schedule: Q01DX Z (ip), vehicle: saline",90 % of control
CCC/C=C(/CC(=O)O)C(=O)O,T/C,[6],95 % of control
same,T/C,"endpoint: mean survival time, dose: 200.0 mg/kg/injection, schedule: Q04DX003 (ip), vehicle: saline",100 % of control
same,T/C,"endpoint: mean survival time, dose: 400.0 mg/kg/injection, schedule: Q04DX003 (ip), vehicle: saline",97 % of control
CC1(C)COP(Oc2ccccc2)OC1,T/C,[21],100 % of control
same,T/C,[8],107 % of control
same,T/C,[22],97 % of control
same,T/C,[9],103 % of control
same,T/C,[10],107 % of control
NCCCN=C=NCc1ccccc1,T/C,[11],100 % of control
c1cc2c3c(c1)-c1nc4ccccc4cc1CN3CCC2,T/C,[21],94 % of control
same,T/C,[22],105 % of control
same,T/C,[23],96 % of control
O=[N+]([O-])c1ccc(-n2cnnn2)cc1,T/C,"endpoint: mean survival time, dose: 100.0 mg/kg/injection, schedule: Q01DX001 (ip), vehicle: carboxymethylcellulose (CMC)",94 % of control
same,T/C,"endpoint: mean survival time, dose: 200.0 mg/kg/injection, schedule: Q01DX001 (ip), vehicle: carboxymethylcellulose (CMC)",100 % of control
same,T/C,"endpoint: mean survival time, dose: 400.0 mg/kg/injection, schedule: Q01DX001 (ip), vehicle: carboxymethylcellulose (CMC)",91 % of control
CC#CCOCC1CN(c2ccccc2)C(=O)O1 (stereo not given),T/C,[21],117 % of control
same,T/C,[8],95 % of control
same,T/C,[22],103 % of control
same,T/C,[9],103 % of control
same,T/C,[23],100 % of control
same,T/C,[10],101 % of control
O=C1OC(c2c3ccccc3cc3ccccc23)c2ccccc21 (stereo not given),T/C,[19],98 % of control
same,T/C,[21],98 % of control
same,T/C,[22],95 % of control
O=S(=O)(F)c1cc(C[P+](c2ccccc2)(c2ccccc2)c2ccccc2)ccc1Cl,T/C,"endpoint: mean survival time, dose: 6.25 mg/kg/injection, schedule: Q01DX009 (ip), vehicle: saline with Tween-80",105 % of control
same,T/C,"endpoint: mean survival time, dose: 12.5 mg/kg/injection, schedule: Q01DX009 (ip), vehicle: saline with Tween-80",102 % of control
same,T/C,[17],103 % of control
O=C(Nc1cccc(C(F)(F)F)c1)c1cccc(C(=O)Nc2cccc(C(F)(F)F)c2)c1,T/C,"endpoint: mean survival time, dose: 12.5 mg/kg/injection, schedule: Q04DX003 (ip), vehicle: saline with Tween-80",96 % of control
same,T/C,[18],91 % of control
same,T/C,[20],90 % of control
CC12C(=O)C(C)(C(c3ccccc3)=C1c1ccccc1)C1C=CN(S(C)(=O)=O)C=CC12 (stereo not given),T/C,"endpoint: mean survival time, dose: 100.0 mg/kg/injection, schedule: Q04DX002 (ip), vehicle: saline with Tween-80",86 % of control
same,T/C,"endpoint: mean survival time, dose: 200.0 mg/kg/injection, schedule: Q04DX002 (ip), vehicle: saline with Tween-80",88 % of control
same,T/C,"endpoint: mean survival time, dose: 400.0 mg/kg/injection, schedule: Q04DX002 (ip), vehicle: saline with Tween-80",86 % of control
CC(=O)CCC(=O)OCCCl,T/C,[14],102 % of control
same,T/C,[15],101 % of control
same,T/C,[16],101 % of control
O=C1CC2C=CCC12 (stereo not given),T/C,[8],95 % of control
same,T/C,[9],93 % of control
same,T/C,[10],93 % of control
